The values below come from PubChem BioAssay AID652 (University of Pittsburgh Molecular Library Screening Center, 2007).

Activity calls are given as the source filed them. The rule behind the calls is not given here.

One experiment has as its target Gag-Pol polyprotein (Human immunodeficiency virus type 1 group M subtype B (isolate HXB2)) (UniProt P04585). As to the kind of experiment: HIV-1 RT RNase H inhibitor potency, dose response, biochemical, probe assessment (AID 652). As to conditions: HIV-1 RT RNase H enzymatic assay.
Take `Oc1ccc(-c2nc(-c3ccc(O)c(O)c3)cs2)cc1`: the IC50 was 2.23 µM.

As to `Cc1ccccc1N1C(=O)c2sc3nc4c(c(=O)n3c2C1=O)CCC4`, the IC50 was 2.37 µM.

As for `C=CCOC(=O)C1=C(C)NC(SCC(=O)Nc2ccc(C)c(Cl)c2)=C(C#N)C1c1ccco1` (configuration not stated), the IC50 is 4.25 µM.

For the compound `Nc1c(C(=O)NCc2cccnc2)sc(=S)n1-c1ccccc1`, the IC50 was 2.22 µM.

On to `COc1ccc(C(=S)N(C)C)cc1OC`, for which the IC50 is 3.61 µM.

`CC(C)Sc1nc(-c2cccs2)nc2c1c(=O)n(C)c(=O)n2C`: the IC50 is 5.42 µM.

For `O=C1CCCC(O)=C1C(C#Cc1ccccc1)C1=C(O)CCCC1=O`, the IC50 is 1.08 µM.

Take `CCOc1cccc(C=Nc2cc(C)cc(C)c2O)c1O`: the IC50 is > 50 µM (inactive).

Take `O=C(COc1ccc(Cl)cc1)Nc1nnc(-c2ccc3c(c2)CCCC3)o1`: the IC50 was 4.49 µM.

Turning to `S=C(Nc1ccccn1)c1ccccn1`, the 50% inhibitory concentration (IC50) is 4.96 µM.

Regarding `CCOC(=O)N1CC=C2C(C#N)=C(N)C(C#N)(C#N)[C@H](c3ccc(OC(C)C)c(OCC)c3)[C@H]2C1`, the 50% inhibitory concentration (IC50) was 21.7 µM.

As for `Nc1c(S(=O)(=O)c2cccc(Cl)c2)c2nc3ccccc3nc2n1/N=C/c1ccc(O)c(O)c1`, the IC50 was 0.266 µM.

The experiment is the same for the next values; noted with them: HIV-1 RT RNase H enzymatic assay, inhibition, at 50 µM, stronger effect = higher value.
On to `O=C(NCc1ccco1)c1cccnc1-c1nc2ccccc2s1`, for which the inhibition worked out at 93.7%.

Consider `N#Cc1cc(-c2ccccc2)nn1-c1ccccc1`, for which the inhibition was 99.4%.

Regarding `CC1(C)Cc2[nH]c(=S)c(C#N)cc2CO1`, the inhibition was determined as 71.1%.

As to `Cc1sc(-n2c(C)cc(/C=N/n3cnnc3)c2C)c(C#N)c1C`, the inhibition came to 89.5%.

As for `Cn1ccnc1P(=S)(c1nccn1C)N1CCOCC1`, the inhibition is 60%.

In the case of `Cc1cccc(OCC(=O)Nc2cccc(-c3nnc(-c4ccccc4)o3)c2)c1C`, the inhibition turned out to be 88.1%.

For `COc1ccc(OC)c(CCNC(=O)Cn2sc3nc(C)cc(C)c3c2=O)c1`, the inhibition worked out at 91.6%.

Turning to `COc1cc(C(=O)Nc2oc(-c3ccccc3)c(-c3ccccc3)c2C#N)cc(OC)c1OC`, the inhibition turned out to be 94%.

Consider `Cc1ccc(-n2sc3ccccc3c2=O)cc1S(=O)(=O)N1CCCCC1`, for which the inhibition worked out at 96.9%.

Regarding `Cc1cc(NC(=O)CSc2nc(C3CC3)nc3sc4c(c23)CCC(C)C4)no1` (configuration not stated), the inhibition was 94.1%.

Turning to `O=C1CC(c2ccco2)Cc2nc(Nc3nc(-c4ccccc4)c4ccccc4n3)ncc21` (configuration not stated), the inhibition was 53.7%.

`Cc1cc(C)cc(OCC(=O)Nc2nonc2NC(=O)COc2cc(C)cc(C)c2)c1`: the inhibition was 88%.

As for `Oc1ccc(-c2nc(-c3ccc(O)c(O)c3)cs2)cc1`, the inhibition worked out at 101%.

For the compound `Clc1ccccc1-c1nn2c(-c3ccncc3)nnc2s1`, the inhibition was determined as 79.3%.

`O=C(NC1CCS(=O)(=O)C1)c1c(NC(=O)C2COc3ccccc3O2)sc2c1CCCC2` (configuration not stated): the inhibition was 88.4%.

Consider `Cc1ccc(-n2nc(C)c3c2NC(=O)CSC3c2ccc3c(c2)OCO3)cc1` (configuration not stated), for which the inhibition turned out to be 89.4%.

On to `Cc1cccc(C(=O)OCC(=O)Nc2ccc(N3CCCCC3)cc2)c1O`, for which the inhibition is 94.7%.

Turning to `c1ccc(-c2ccc(-c3ccccn3)nn2)nc1`, the inhibition was 52.4%.

As for `COc1ccc(OC)c(/C=N/c2oc(-c3ccco3)c(-c3ccco3)c2C#N)c1`, the inhibition turned out to be 89.5%.

Consider `COC(=O)c1ccc2c(c1)N(Cc1nc(-c3cccc(C)c3)oc1C)C(=O)C1CCCN21` (configuration not stated), for which the inhibition was 78.1%.

In the case of `CCCCCC#CCC#CCC#CCC#CCCCC(=O)O`, the inhibition is 98%.

With `O=C(CCCn1c(SCC(=O)c2ccc(O)c(O)c2)nc2ccccc2c1=O)NCC1CCCO1` (configuration not stated), the inhibition was 99.4%.

With `O=C(CSc1ncn[nH]1)c1ccccc1`, the inhibition worked out at 84.1%.

As for `c1ccc(N2CCN(c3nc4cc5c(cc4s3)OCO5)CC2)cc1`, the inhibition was found to be 97.6%.

On to `C=CCn1c(SCC(=O)NC(=O)NCc2ccco2)nc2sc(C)c(C)c2c1=O`, for which the inhibition stood at 83.8%.

With `COc1ccc(N2CCN(Cc3cc(=O)oc4cc(C)c(Cl)c(C)c34)CC2)cc1`, the inhibition worked out at 96%.

Turning to `Cc1cc(C)c2oc(-c3ccc(Cl)c(NC(=O)c4ccc(C#N)cc4F)c3)nc2c1`, the inhibition came out at 91%.

Turning to `COc1cc(OC)c(C2CC(=O)N3CN(C)CSC3=C2C#N)cc1OC` (configuration not stated), the inhibition is 76.1%.

In the case of `CCCCCn1c(=O)c(C(=O)NCc2ccncc2)c(O)c2ccccc21`, the inhibition stood at 96%.

Consider `COc1ccc(-c2nsc(SCC(=O)Nc3cc(C)on3)n2)cc1`, for which the inhibition is 96.6%.

Turning to `CC(=O)C(C(C)=O)c1c(Cl)c(O)c(O)c2c(C(=O)c3ccccc3)coc12`, the inhibition was 93.1%.

As for `Cc1ccccc1N1C(=O)c2sc3nc4c(c(=O)n3c2C1=O)CCC4`, the inhibition was 98.7%.

In the case of `Cc1ccc(-n2c(N)c(C(=O)N3CCN(C)CC3)sc2=S)cc1`, the inhibition worked out at 53.5%.

For the compound `C=CCn1c(N)c(C(=O)NCCC2=CCCCC2)sc1=S`, the inhibition was 85.9%.

`Cc1noc(C)c1CSc1nc2cc(S(=O)(=O)N3CCOCC3)ccc2o1`: the inhibition came to 88.3%.

With `CN1CCN(C(=O)c2sc(=S)n(-c3ccccc3)c2N)CC1`, the inhibition was 73.1%.

Turning to `CCC1CCCCN1S(=O)(=O)c1ccc(S(=O)(=O)N2CCN(S(=O)(=O)CC)CC2)cc1` (configuration not stated), the inhibition stood at 93%.

Take `C=CCOC(=O)C1=C(C)NC(SCC(=O)Nc2ccc(C)c(Cl)c2)=C(C#N)C1c1ccco1` (configuration not stated): the inhibition stood at 98.7%.

Take `c1ccc(-n2ncc3c2ncn2nc(-c4ccco4)nc32)cc1`: the inhibition came to 89.8%.

With `CCOC(=O)CSc1nc2cc(C(=O)NCc3ccco3)ccc2c(=O)n1C1CCCCC1`, the inhibition turned out to be 89%.

Regarding `CCOc1ccc(S(=O)(=O)Nc2cc(Sc3ncn[nH]3)c3oc(=O)sc3c2)cc1`, the inhibition came to 94.6%.

Turning to `CCOC(=O)CSc1nc2cc(C(=O)NCc3ccco3)ccc2c(=O)n1-c1ccc(F)cc1`, the inhibition is 91.8%.

For `C=CCNC(=O)c1c(N)n(-c2ccc3c(c2)OCO3)c2nc3ccccc3nc12`, the inhibition came to 55.2%.

Turning to `Nc1c(C(=O)NCc2cccnc2)sc(=S)n1-c1ccccc1`, the inhibition turned out to be 73.5%.

`COc1ccc(Br)cc1C1CC(=O)N2CN(C)CSC2=C1C#N` (configuration not stated): the inhibition worked out at 84.1%.

Consider `COC(=O)c1ccccc1NC(=O)c1ccc2c(c1)C(=O)N(Cc1ccco1)C2=O`, for which the inhibition worked out at 93.3%.

Consider `CCCCCn1c(SCCCC)nc2c1c(=O)[nH]c(=O)n2C`, for which the inhibition came to 91.1%.

Regarding `O=C(O)c1cc(S(=O)(=O)Nc2ccc3oc(=O)sc3c2)ccc1O`, the inhibition is 88.2%.

Take `Cc1ccc2c(SCC(=O)NCc3ccco3)nc(-c3ccc(F)cc3)nc2c1`: the inhibition amounted to 79.6%.

Take `CCOC(=O)C(C(C)=O)c1c(Br)c(O)c(O)c2c(C(=O)c3ccc(C)cc3)coc12` (configuration not stated): the inhibition was found to be 86.7%.

With `CCOC(=O)c1c(C)[nH]c(C(=O)CSc2nc3ccccc3o2)c1C`, the inhibition came out at 93.7%.

Regarding `COc1ccc(CCNC(=O)c2c(O)c3cccc4c3n(c2=O)CC4)cc1`, the inhibition was 67.1%.

As for `COc1ccc(C(=S)N(C)C)cc1OC`, the inhibition turned out to be 78.6%.

For `O=c1[nH]c(=O)n(-c2ccc(F)cc2)c(O)c1C=Nc1ccccc1N1CCCC1`, the inhibition was determined as 83.7%.

For `O=C(c1ccccc1F)N1CCN(S(=O)(=O)c2ccc(S(=O)(=O)N3CCCCC3)cc2)CC1`, the inhibition stood at 95.5%.

Consider `CC(C)Sc1nc(-c2cccs2)nc2c1c(=O)n(C)c(=O)n2C`, for which the inhibition worked out at 98.9%.

Turning to `Cc1sc2nc(C(C)Nc3ccccc3N3CCOCC3)[nH]c(=O)c2c1C` (configuration not stated), the inhibition was 66.5%.

On to `CCn1cc(C(=O)NCc2ccco2)c(=O)c2cc(S(=O)(=O)N3CCc4ccccc4C3)ccc21`, for which the inhibition was found to be 76.8%.

On to `COC(=O)c1ccc2c(=O)n(Cc3ccco3)c(SCC(=O)Nc3ccccc3Cl)nc2c1`, for which the inhibition came out at 92.2%.

Regarding `Cc1cccc(-c2nsc(SCC(=O)Nc3nccs3)n2)c1`, the inhibition worked out at 97.3%.

On to `CCc1ccccc1N1CSC2=C(C#N)C(c3cc(OC)c(OC)cc3OC)CC(=O)N2C1` (configuration not stated), for which the inhibition was 98.3%.

In the case of `COC(=O)c1cccc(N2C(=O)C(Cl)=C(N3CCOCC3)C2=O)c1`, the inhibition came to 29.2%.

Take `O=C1CCCC(O)=C1C(C#Cc1ccccc1)C1=C(O)CCCC1=O`: the inhibition is 90.9%.

For `CC(C)c1ccc2oc(-c3ccc(NC(=O)c4ncn[nH]4)cc3)nc2c1`, the inhibition stood at 92.7%.

For the compound `CCOC(=O)c1c(N)sn(-c2ccccc2C)c1=S`, the inhibition stood at 83.4%.

`Cc1cc(C(=O)CSc2nnc(-c3ccc(OC(F)F)cc3)o2)c(C)n1Cc1cccs1`: the inhibition is 74.6%.

As for `CCOc1cccc(C=Nc2cc(C)cc(C)c2O)c1O`, the inhibition is 20.5%.

Turning to `O=C(CSc1nc2sc3c(c2c(=O)n1-c1ccccc1)CCCC3)NCc1ccco1`, the inhibition is 77.8%.

For the compound `CC1CC(C)(C)NC(=S)S1` (configuration not stated), the inhibition was determined as 66%.

On to `O=C(COc1ccc(Cl)cc1)Nc1nnc(-c2ccc3c(c2)CCCC3)o1`, for which the inhibition worked out at 83.7%.

For `c1c2c(cc3sc(N4CCOCC4)nc13)OCO2`, the inhibition was found to be 78.1%.

Turning to `S=C(Nc1ccccn1)c1ccccn1`, the inhibition was 85.8%.

In the case of `Cc1cc(C)c2c(=O)n(CC(=O)NCCCN3CCOCC3)sc2n1`, the inhibition amounted to 80.5%.

`CCOC(=O)c1c(N)sc2c1CCC1C(=O)N(C3CCCCC3)C(=O)C21` (configuration not stated): the inhibition turned out to be 96.1%.

Consider `O=C(O)c1ccc2c(c1)NC(=O)C(N1CCCC1)S2` (configuration not stated), for which the inhibition stood at 75.8%.

Consider `O=c1c2ccccc2sn1-c1cc(S(=O)(=O)N2CCOCC2)ccc1N1CCOCC1`, for which the inhibition came to 84.4%.

On to `CCOC(=O)N1CC=C2C(C#N)=C(N)C(C#N)(C#N)[C@H](c3ccc(OC(C)C)c(OCC)c3)[C@H]2C1`, for which the inhibition is 98.5%.

Take `c1ccc2c(c1)nnn2Cc1nnc2sc(-c3ccc4c(c3)OCCO4)nn12`: the inhibition came to 85.3%.

`C=CCn1c(=O)c(C(=O)Nc2nnc(C)s2)c(O)c2ccccc21`: the inhibition was 84.5%.

For `Cc1ccc(/C=C/C2=Cc3c(sc(NC(=O)CSc4n[nH]c(N)n4)c3C#N)C(C)(C)C2)o1`, the inhibition was 91.1%.

As to `Cc1nn(CCC#N)c2c1P(=S)(N1CCCC1)OC(c1ccc(F)cc1)=N2` (configuration not stated), the inhibition is 90.2%.

As for `COc1cc(-c2nn3c(Cc4ccccc4)nnc3s2)cc(OC)c1OC`, the inhibition worked out at 86%.

`O=C(NC(=O)c1ccc(Cl)cc1)Nc1cc(N2CCCCC2)ncn1`: the inhibition was 97.4%.

Regarding `S=c1nc(C2CC2)[nH]c2ccccc12`, the inhibition came to 97.1%.

As to `Nc1c(C(=O)N2CCOCC2)sc(=S)n1-c1ccccc1`, the inhibition was found to be 75.2%.

With `Cc1oc(-c2ccc(Cl)cc2)cc1-c1nn2c(-c3ccoc3C)nnc2s1`, the inhibition was determined as 78.4%.

With `O=C(c1ccc2c3c(cccc13)C(=O)N(O)C2=O)N1CCCCC1`, the inhibition was 91.7%.

Take `CCc1ccc(NC(=O)CSc2nc3cc(C(=O)OC)ccc3c(=O)n2Cc2ccco2)cc1`: the inhibition is 94.7%.

Turning to `Nc1c(S(=O)(=O)c2cccc(Cl)c2)c2nc3ccccc3nc2n1/N=C/c1ccc(O)c(O)c1`, the inhibition was 96.3%.

In the case of `CC(C)c1ccc(C2CC(=O)N3CN(C)CSC3=C2C#N)cc1` (configuration not stated), the inhibition was 86.9%.
